ChEMBL document CHEMBL3885861, “Open TG-GATES”

Species on record: Rattus norvegicus
Experiment: Open TG-GATES - Regimen: Daily Repeat
Format: toxicity, organism-based, Sprague-Dawley
Parameters: regimen Daily Repeat, gender Male, age 6 weeks
Conditions: in vivo, po, 0 mg/kg, […], route gavage, dose level Control; for KIDNEY_L / KIDNEY_R / KIDNEY_TOTAL: tissue Kidney; for LIVER: tissue Liver; for A/G / ALP / ALT / AST / BUN / CRE / Ca / Cl / DBIL / GLC / IP / K / LDH / Na / PL / RALB / TBIL / TC / TG / TP / gamma-GTP: tissue Plasma

CCc1oc2ccccc2c1C(=O)c1cc(Br)c(O)c(Br)c1 [BENZBROMARONE]
Lym (tissue Blood, time 28 day): 83.8% | MCH (tissue Blood, time 28 day): 18.6 pg | MCHC (tissue Blood, time 28 day): 33.3% | MCV (tissue Blood, time 28 day): 55.9 fL | Mono (tissue Blood, time 28 day): 3.8% | Neu (tissue Blood, time 28 day): 11.4% | PT (tissue Blood, time 28 day): 12 s | Plat (tissue Blood, time 28 day): 106.6 x10_4/uL | RBC (tissue Blood, time 28 day): 832 x10_4/ul | Ret (tissue Blood, time 28 day): 2.6% | WBC (tissue Blood, time 28 day): 136.5 x10_2/uL | KIDNEY_L (time 7 day): 1.1 g | KIDNEY_R (time 7 day): 1.2 g | KIDNEY_TOTAL (time 7 day): 2.3 g | KIDNEY_L (time 14 day): 1.2 g | KIDNEY_R (time 14 day): 1.2 g | KIDNEY_TOTAL (time 14 day): 2.4 g | KIDNEY_L (time 28 day): 1.4 g | KIDNEY_R (time 28 day): 1.4 g | KIDNEY_TOTAL (time 28 day): 2.9 g | LIVER (time 7 day): 12.8 g | LIVER (time 14 day): 13.9 g | LIVER (time 28 day): 15.8 g | A/G (time 7 day): 1.7 | ALP (time 7 day): 777 IU/L | ALT (time 7 day): 31.8 IU/L | AST (time 7 day): 60.6 IU/L | BUN (time 7 day): 20.4 mg/dL | CRE (time 7 day): 0.5 mg/dL | Ca (time 7 day): 10.3 mg/dL | Cl (time 7 day): 106.5 meq/L | DBIL (time 7 day): 0.02 mg/dL | GLC (time 7 day): 197.2 mg/dL | IP (time 7 day): 7.1 mg/dL | K (time 7 day): 5.1 meq/L | LDH (time 7 day): 102.2 IU/L | Na (time 7 day): 138.3 meq/L | PL (time 7 day): 157.8 mg/dL | RALB (time 7 day): 3.9 g/dL | TBIL (time 7 day): 0.3 mg/dL | TC (time 7 day): 74.4 mg/dL | TG (time 7 day): 136.4 mg/dL | TP (time 7 day): 6.1 g/dL | gamma-GTP (time 7 day): 1 IU/L | A/G (time 14 day): 1.8 | ALP (time 14 day): 712.8 IU/L | ALT (time 14 day): 30.6 IU/L | AST (time 14 day): 62.6 IU/L | BUN (time 14 day): 18.2 mg/dL | CRE (time 14 day): 0.5 mg/dL | Ca (time 14 day): 10.2 mg/dL | Cl (time 14 day): 108.1 meq/L | DBIL (time 14 day): 0.008 mg/dL | GLC (time 14 day): 187.6 mg/dL | IP (time 14 day): 6.5 mg/dL | K (time 14 day): 4.9 meq/L | LDH (time 14 day): 85.6 IU/L | Na (time 14 day): 140.1 meq/L | PL (time 14 day): 158.6 mg/dL | RALB (time 14 day): 3.9 g/dL | TBIL (time 14 day): 0.3 mg/dL | TC (time 14 day): 78.6 mg/dL | TG (time 14 day): 139.8 mg/dL | TP (time 14 day): 6.1 g/dL | gamma-GTP (time 14 day): 1.2 IU/L | A/G (time 28 day): 1.6 | ALP (time 28 day): 607.6 IU/L | ALT (time 28 day): 28.2 IU/L | AST (time 28 day): 58 IU/L | BUN (time 28 day): 19.6 mg/dL | CRE (time 28 day): 0.6 mg/dL | Ca (time 28 day): 9.7 mg/dL | Cl (time 28 day): 106.7 meq/L | DBIL (time 28 day): 0.006 mg/dL | GLC (time 28 day): 182 mg/dL | IP (time 28 day): 6.5 mg/dL | K (time 28 day): 4.5 meq/L | LDH (time 28 day): 89.8 IU/L | Na (time 28 day): 139.4 meq/L | PL (time 28 day): 146.4 mg/dL | RALB (time 28 day): 4 g/dL | TBIL (time 28 day): 0.3 mg/dL | TC (time 28 day): 70.4 mg/dL | TG (time 28 day): 146.8 mg/dL | TP (time 28 day): 6.4 g/dL | gamma-GTP (time 28 day): 1.4 IU/L
